Measurements published in patent publication US7897627B2, “Heteroaryl derivatives as orexin receptor antagonists” (Hoffmann-La Roche Inc., priority 2007, dated 2011).

Molecular target: T1, human orexin-2 (hOX2) receptor (Homo sapiens, UniProt O43614)
T1 construct: expressed in transfected cells
T1 sequence (O43614 1-444): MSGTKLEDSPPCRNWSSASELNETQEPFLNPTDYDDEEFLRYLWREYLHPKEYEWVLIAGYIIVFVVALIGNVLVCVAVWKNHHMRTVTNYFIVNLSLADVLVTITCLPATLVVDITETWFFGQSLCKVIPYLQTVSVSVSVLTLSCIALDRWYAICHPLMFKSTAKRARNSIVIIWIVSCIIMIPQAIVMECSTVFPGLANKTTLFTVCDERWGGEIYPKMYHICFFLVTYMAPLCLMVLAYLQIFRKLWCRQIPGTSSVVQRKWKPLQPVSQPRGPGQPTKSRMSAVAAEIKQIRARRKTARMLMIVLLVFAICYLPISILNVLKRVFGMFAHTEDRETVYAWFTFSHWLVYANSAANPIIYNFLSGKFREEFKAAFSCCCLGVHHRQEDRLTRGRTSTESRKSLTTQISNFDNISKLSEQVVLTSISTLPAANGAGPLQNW
Assay: Intracellular Ca2+ mobilization assay (FLIPR), CHO(dHFr-) cells expressing hOX2, orexin-A as agonist
Format: cell-based
Details: antagonist Kb=IC50/(1+[A]/EC50); orexin-A at EC80; CHO(dHFr-)-OX2R cells; antagonist applied 25 min before agonist
Outline: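 Cells loaded with 4 μM Fluo-4 AM (1 h, 37° C) in HBSS/20 mM HEPES/2.5 mM probenecid; antagonists (11 concentrations, 0.0001-10 μM) added 25 min at 37° C before orexin-A at its daily-determined EC80. Peak fluorescence minus basal fitted to Hill equation for IC50; Kb=IC50/(1+[A]/EC50).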

| Compound | Kb [µM] |
| --- | --- |
| O=C(c1ccccc1OC(F)(F)F)N1CC[C@@H](Nc2cnc3cc(F)c(F)cc3n2)C1 [Example 166, [(R)-3-(6,7-Difluoro-quinoxalin-2-ylamino)-pyrrolidin-1-yl]-(2-trifluoromethoxy-phenyl)-methanone] | 0.009 |
| O=C(c1ccccc1OC(F)(F)C(F)F)N1CC[C@@H](Nc2cnc3cc(F)c(F)cc3n2)C1 [Example 167, [(R)-3-(6,7-Difluoro-quinoxalin-2-ylamino)-pyrrolidin-1-yl]-[2-(1,1,2,2-tetrafluoro-ethoxy)-phenyl]-methanone] | 0.001 |
| Cc1onc(-c2ccccc2)c1C(=O)N1CC[C@@H](Nc2cnc3cc(F)c(F)cc3n2)C1 [Example 168, [(R)-3-(6,7-Difluoro-quinoxalin-2-ylamino)-pyrrolidin-1-yl]-(5-methyl-3-phenyl-isoxazol-4-yl)-methanone] | 0.0038 |
| Cc1noc(-c2ccccc2C(=O)N2CC[C@@H](Nc3cnc4cc(F)c(F)cc4n3)C2)n1 [Example 169, [(R)-3-(6,7-Difluoro-quinoxalin-2-ylamino)-pyrrolidin-1-yl]-[2-(3-methyl-[1,2,4]oxadiazol-5-yl)-phenyl]-methanone] | 0.0021 |
| Cc1nc(C(=O)N2CC[C@@H](Nc3cnc4cc(F)c(F)cc4n3)C2)c(-c2ccccc2)s1 [Example 172, [(R)-3-(6,7-Difluoro-quinoxalin-2-ylamino)-pyrrolidin-1-yl]-(2-methyl-5-phenyl-thiazol-4-yl)-methanone] | 0.0032 |
| O=C(c1ccccc1OC(F)(F)C(F)F)N1CC[C@@H](Nc2cnc3cc(Cl)ccc3n2)C1 [Example 175, [(R)-3-(6-Chloro-quinoxalin-2-ylamino)-pyrrolidin-1-yl]-[2-(1,1,2,2-tetrafluoro-ethoxy)-phenyl]-methanone] | 0.0187 |
| Cc1onc(-c2ccccc2)c1C(=O)N1CC[C@@H](Nc2cnc3cc(Cl)ccc3n2)C1 [Example 177, [(R)-3-(6-Chloro-quinoxalin-2-ylamino)-pyrrolidin-1-yl]-(5-methyl-3-phenyl-isoxazol-4-yl)-methanone] | 0.0423 |
| Cc1noc(-c2ccccc2C(=O)N2CC[C@@H](Nc3cnc4cc(Cl)ccc4n3)C2)n1 [Example 178, [(R)-3-(6-Chloro-quinoxalin-2-ylamino)-pyrrolidin-1-yl]-[2-(3-methyl-[1,2,4]oxadiazol-5-yl)-phenyl]-methanone] | 0.0244 |
| Cc1nc(C(=O)N2CC[C@@H](Nc3cnc4cc(Cl)ccc4n3)C2)c(-c2ccccc2)s1 [Example 181, [(R)-3-(6-Chloro-quinoxalin-2-ylamino)-pyrrolidin-1-yl]-(2-methyl-5-phenyl-thiazol-4-yl)-methanone] | 0.028 |
| O=C(c1ccccc1C(F)(F)F)N1CC[C@@H](Nc2cnc3ccccc3n2)C1 [Example 182, [(R)-3-(Quinoxalin-2-ylamino)-pyrrolidin-1-yl]-(2-trifluoromethyl-phenyl)-methanone] | 0.027 |
| O=C(c1ccccc1OC(F)(F)F)N1CC[C@@H](Nc2cnc3ccccc3n2)C1 [Example 183, [(R)-3-(Quinoxalin-2-ylamino)-pyrrolidin-1-yl]-(2-trifluoromethoxy-phenyl)-methanone] | 0.02 |
| O=C(c1ccccc1OC(F)(F)C(F)F)N1CC[C@@H](Nc2cnc3ccccc3n2)C1 [Example 184, [(R)-3-(Quinoxalin-2-ylamino)-pyrrolidin-1-yl]-[2-(1,1,2,2-tetrafluoro-ethoxy)-phenyl]-methanone] | 0.0021 |
| Cc1nc(C(=O)N2CC[C@@H](Nc3cnc4ccccc4n3)C2)c(-c2ccccc2)s1 [Example 189, (2-Methyl-5-phenyl-thiazol-4-yl)-[(R)-3-(quinoxalin-2-ylamino)-pyrrolidin-1-yl]-methanone] | 0.028 |
| O=C(c1ccccc1OC(F)(F)C(F)F)N1CC[C@@H](Nc2cnc3ccc(Cl)cc3n2)C1 [Example 192, [(R)-3-(7-Chloro-quinoxalin-2-ylamino)-pyrrolidin-1-yl]-[2-(1,1,2,2-tetrafluoro-ethoxy)-phenyl]-methanone] | 0.0324 |

More lines, now with the values ahead:

| Kb [µM] | Compound |
| --- | --- |
| 0.0129 | Cc1ccc(Cl)c(C(=O)N2CC[C@@H](Nc3cnc4cc(F)c(F)cc4n3)C2)c1 [Example 170, (2-Chloro-5-methyl-phenyl)-[(R)-3-(6,7-difluoro-quinoxalin-2-ylamino)-pyrrolidin-1-yl]-methanone] |
| 0.0245 | COc1ccc(C)cc1C(=O)N1CC[C@@H](Nc2cnc3cc(F)c(F)cc3n2)C1 [Example 171, [(R)-3-(6,7-Difluoro-quinoxalin-2-ylamino)-pyrrolidin-1-yl]-(2-methoxy-5-methyl-phenyl)-methanone] |
| 0.014 | Cc1ccc(C(F)(F)F)c(C(=O)N2CC[C@@H](Nc3cnc4cc(Cl)ccc4n3)C2)c1 [Example 176, [(R)-3-(6-Chloro-quinoxalin-2-ylamino)-pyrrolidin-1-yl]-(5-methyl-2-trifluoromethyl-phenyl)-methanone] |
| 0.0075 | Cc1ccc(C(F)(F)F)c(C(=O)N2CC[C@@H](Nc3cnc4ccccc4n3)C2)c1 [Example 185, (5-Methyl-2-trifluoromethyl-phenyl)-[(R)-3-(quinoxalin-2-ylamino)-pyrrolidin-1-yl]-methanone] |
| 0.0073 | Cc1ccc(C(F)(F)F)c(C(=O)N2CC[C@@H](Nc3ccnc(-c4ccccc4)n3)C2)c1 [Example 200, (5-Methyl-2-trifluoromethyl-phenyl)-[(R)-3-(2-phenyl-pyrimidin-4-ylamino)-pyrrolidin-1-yl]-methanone] |
| 0.0046 | Cc1ccc(C(F)(F)F)c(C(=O)N2CC[C@@H](Nc3nc4cc(F)c(F)cc4s3)C2)c1 [Example 202, [(R)-3-(5,6-Difluoro-benzothiazol-2-ylamino)-pyrrolidin-1-yl]-(5-methyl-2-trifluoromethyl-phenyl)-methanone] |
| 0.008 | Cc1ccc(C(F)(F)F)c(C(=O)N2CC[C@@H](Nc3nc4c(Cl)cccc4s3)C2)c1 [Example 203] |
| 0.0052 | Cc1ccc(C(F)(F)F)c(C(=O)N2CC[C@@H](Nc3cnc4cc(C(C)(C)C)ccc4n3)C2)c1 [Example 204] |
| 0.0046 | Cc1ccc(C(F)(F)F)c(C(=O)N2CC[C@@H](Nc3cnc4cc(F)ccc4n3)C2)c1 [Example 207] |
| 0.0086 | Cc1ccc(C(F)(F)F)c(C(=O)N2CC[C@@H](Nc3cnc4cc(C)c(Cl)cc4n3)C2)c1 [Example 212] |
| 0.0371 | Cc1ccc(C(F)(F)F)c(C(=O)N2CC[C@@H](Nc3cnc4cc(Cl)c(C)cc4n3)C2)c1 [Example 213] |
